Test results: ChEMBL document CHEMBL1201862, “PubChem BioAssay data set” (2004)
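A five-concentration, 48-hour dose response in 96-well plates underlies each endpoint, interpolated linearly between surrounding concentrations. GI50: concentration for 50% inhibition of growth.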 Active and inactive are the calls of the source. Rule as the data show it: active = GI50 up to about 1.1 µM and inactive = higher.

How the values were obtained:
Experiment in all cases: NCI-60 cell line screen, 48 h
ACHN = tested on: ACHN
CCRF-CEM = tested on: CCRF-CEM
COLO 205 = tested on: COLO 205
HCT-116 = tested on: HCT-116
HL-60 = tested on: HL-60
HT-29 = tested on: HT-29
Hs-578T = tested on: Hs-578T
IGROV-1 = tested on: IGROV-1
LOX IMVI = tested on: LOX IMVI
MDA-N = tested on: MDA-N
Malme-3M = tested on: Malme-3M
NCI-H522 = tested on: NCI-H522
RXF 393 = tested on: RXF 393
SF-268 = tested on: SF-268
SK-MEL-28 = tested on: SK-MEL-28
SK-MEL-2 = tested on: SK-MEL-2
SK-MEL-5 = tested on: SK-MEL-5
SR = tested on: SR
SW-620 = tested on: SW-620
U-251 = tested on: U-251

Row | Compound | GI50 (ACHN) | GI50 (CCRF-CEM) | GI50 (COLO 205) | GI50 (HCT-116) | GI50 (HL-60) | GI50 (HT-29) | GI50 (Hs-578T) | GI50 (IGROV-1) | GI50 (LOX IMVI) | GI50 (MDA-N) | GI50 (Malme-3M) | GI50 (NCI-H522) | GI50 (RXF 393) | GI50 (SF-268) | GI50 (SK-MEL-28) | GI50 (SK-MEL-2) | GI50 (SK-MEL-5) | GI50 (SR) | GI50 (SW-620) | GI50 (U-251)
1 | C=C1[C@@H](C)[C@H]2[C@H](Cc3ccccc3)NC(=O)[C@]23OC(=O)/C=C/[C@H](O)CCC[C@@H](C)C/C=C/[C@H]3[C@@H]1O | 4.4 µM (inactive) | 2.37 µM (inactive) | 0.713 µM (active) | 8.41 µM (inactive) | 16.1 µM (inactive) | 5.82 µM (inactive) | 5.89 µM (inactive) | 6.59 µM (inactive) | 0.486 µM (active) | 14.2 µM (inactive) | 16.3 µM (inactive) | 9.23 µM (inactive) | 0.94 µM (active) | 2.55 µM (inactive) | 12.8 µM (inactive) | 24.2 µM (inactive) | 9.53 µM (inactive) | > 100 µM (inactive) | 23.2 µM (inactive) | 2.08 µM (inactive)
2 | [N-]=[N+]=Nc1c(N2CCOCC2)c(Cl)nc2ccccc12 | 39.2 µM (inactive) | > 100 µM (inactive) | 33.5 µM (inactive) | 39.5 µM (inactive) | 66.1 µM (inactive) | 27.2 µM (inactive) | 44.8 µM (inactive) | 81.8 µM (inactive) | 46.6 µM (inactive) | 48.8 µM (inactive) | 41.5 µM (inactive) | 29.7 µM (inactive) | 64.6 µM (inactive) | 37.5 µM (inactive) | 59.8 µM (inactive) | 39 µM (inactive) | 20.7 µM (inactive) | 92.3 µM (inactive) | 72.3 µM (inactive) | 82.6 µM (inactive)
3 | CCOC(=O)C1CC(C(=O)c2ccccc2)N2c3ccccc3-c3ccccc3C12 (stereo not given) | > 100 µM (inactive) | 28.1 µM (inactive) | 30.2 µM (inactive) | 30.8 µM (inactive) | 10.7 µM (inactive) | 78.2 µM (inactive) | 25.9 µM (inactive) | 37.2 µM (inactive) | 65 µM (inactive) | > 100 µM (inactive) | > 100 µM (inactive) | 50.9 µM (inactive) | 29.9 µM (inactive) | 74.6 µM (inactive) | > 100 µM (inactive) | > 100 µM (inactive) | 45.1 µM (inactive) | 19.2 µM (inactive) | > 100 µM (inactive) | 30.3 µM (inactive)
4 | O=C(O)CN1CCNCCN(CC(=O)O)CC1 | > 84.5 µM (inactive) | 5.47 µM (inactive) | 2.01 µM (inactive) | 3.36 µM (inactive) | 3.08 µM (inactive) | 2.38 µM (inactive) | > 66.1 µM (inactive) | 12.6 µM (inactive) | 17.3 µM (inactive) | 11.4 µM (inactive) | 2.35 µM (inactive) | 3.28 µM (inactive) | 13.6 µM (inactive) | 89.1 µM (inactive) | 33.8 µM (inactive) | 26.4 µM (inactive) | 5.48 µM (inactive) | 3.84 µM (inactive) | 3.4 µM (inactive) | 28.2 µM (inactive)
5 | O=[N+]([O-])c1ccc2sc(/C=N/c3ccccn3)cc2c1 | 98.6 µM (inactive) | 33.8 µM (inactive) | > 100 µM (inactive) | 38.4 µM (inactive) | 28.5 µM (inactive) | > 100 µM (inactive) | 47.6 µM (inactive) | 60.4 µM (inactive) | 31.9 µM (inactive) | > 100 µM (inactive) | > 100 µM (inactive) | > 100 µM (inactive) | > 100 µM (inactive) | 28.5 µM (inactive) | > 100 µM (inactive) | > 100 µM (inactive) | > 100 µM (inactive) | 26.4 µM (inactive) | 21.7 µM (inactive) | 33.7 µM (inactive)
6 | Cc1c(-c2cnccn2)ssc1=S [OLTIPRAZ] | 44 µM (inactive) | 60.3 µM (inactive) | > 100 µM (inactive) | 54.3 µM (inactive) | 61.9 µM (inactive) | > 100 µM (inactive) | 34.5 µM (inactive) | > 100 µM (inactive) | 63 µM (inactive) | > 100 µM (inactive) | > 100 µM (inactive) | 34.8 µM (inactive) | 31.9 µM (inactive) | 56.2 µM (inactive) | > 100 µM (inactive) | 53.3 µM (inactive) | 36.3 µM (inactive) | 68.9 µM (inactive) | > 100 µM (inactive) | 46 µM (inactive)
7 | CC(=O)/N=C1/N(/C=C2\C(=O)Oc3ccccc3C2=O)C(=O)/C(=C/c2ccccc2Cl)N1C | > 100 µM (inactive) | > 100 µM (inactive) | > 100 µM (inactive) | > 100 µM (inactive) | > 100 µM (inactive) | > 100 µM (inactive) | 4.29 µM (inactive) | > 100 µM (inactive) | > 100 µM (inactive) | > 100 µM (inactive) | > 100 µM (inactive) | > 100 µM (inactive) | > 100 µM (inactive) | 73.8 µM (inactive) | > 100 µM (inactive) | > 100 µM (inactive) | 48 µM (inactive) | 69.3 µM (inactive) | > 100 µM (inactive) | > 100 µM (inactive)
